Experiment [1] relates to Caski (human epithelial cervical cancer cell line). Kind of experiment: CCK-8 antiproliferative assay, Caski. The format is cell-based. To be noted: Ca-Ski, 48 h, read-out: IC50, Mean ± SE, Caski. In general terms: Tetrazolium dyes change colour on reduction, which living cells bring about.
The test system of experiment [2] is HepG2 (human liver carcinoma cell line). Description: CCK-8 antiproliferative assay, HepG2. Format: cell-based. The conditions noted are these: 48 h, read-out: IC50, Mean ± SE, HepG2.
The subject of experiment [3] is C42B (human prostate cancer line). Description: CCK-8 antiproliferative assay, C42B. The conditions noted are these: 48 h, read-out: IC50, Mean ± SE, C42B. The format is cell-based.
Experiment [4] has as its system MCF-7 (human breast carcinoma cell line). Kind of experiment: CCK-8 antiproliferative assay, MCF-7. Format: cell-based. The conditions noted are these: MCF7, 48 h, read-out: IC50, Mean ± SE, MCF-7.
The subject of experiment [5] is RWPE-1 (human prostate epithelial cells). Description: CCK-8 cytotoxicity, RWPE-1 normal cells. The format is cell-based. An excerpt: High cytotoxicity is one of the most limiting factors in chemotherapeutics.
(§1) A549 (non-small-cell-lung cancer cell line), Caski (human epithelial cervical cancer cell line), HepG2 (human liver carcinoma cell line), MCF-7 (human breast carcinoma cell line), C42B (human prostate cancer line C42B), L-02 (human normal hepatocytes), RWPE-1 (human prostate epithelial cells) and MCF-10A (human normal mammary epithelial cells) were obtained from National Collection of Authenticated Cell Cultures (Shanghai, China). […]
(§2) After 24 h, the medium containing different concentrations of tested compounds were added for another 48 h. […] The optical density was recorded with a microplate reader at 570 nm (Thermo Scientific, Varioskan LUX). All the experiments were repeated independently at least three times and the IC50 values were calculated […]
The fluorescence intensity enhancement (emission wavelength is 410 nm, excitation wavelength is 340 nm) was recorded every 60 s for 60 min in a multifunction microplate reader (Molecular Devices, Flex Station 3). […]

In experiment [6] the test system is HCT-8 (human ileocecum carcinoma cell line). Description: CCK-8 cytotoxicity, HCT-8. Format: cell-based. To be noted: 48 h, read-out: IC50, Mean ± SE, HCT-8. As for the experimental part: Besides the high cytotoxicity, drug resistance is the other limiting factor of chemotherapeutics. In this study, the cytotoxicities of compound 14b towards five kinds of drug-resistant cancer cell lines were also evaluated. Except three kinds of cell lines that are resistant to three drugs commonly used in clinical practice, two kinds of cell lines that are resistant to MTAs were also evaluated.
as §1, §2

For experiment [7], the system named is A549 cells. Kind of experiment: intracellular microtubule morphology by immunofluorescence. The format is cell-based, human. To be noted: A549, 10, 20 and 50 nM, 12 h. As for the experimental part: Tubulin–microtubule homeostasis is crucial for cell mitosis.
Figure 2 Effect of compound 14b on tubulin. […] The experiments were performed at least three times, and representative images are shown. Scale bars are 10 μm. […] The backbone of tubulin is shown in ribbon representation (α-tubulin, yellow; β-tubulin, green). […] The data were shown as mean ± SE (standard error) of at least three independent experiments.
S Ⅳ. Biological evaluation methods
The cells grown in logarithmical phase were seeded in 96-well plates with the density of 5×10^3/well.
After 24 h, the medium containing different concentrations of tested compounds were added for another 48 h. Then, CCK-8 reagents were added to cells and continued to culture for 2 h. The optical density was recorded with a microplate reader at 570 nm (Thermo Scientific, Varioskan LUX). All the experiments were repeated independently at least three times and the IC50 values were calculated […]
S2. In vitro tubulin polymerization inhibition assay
The in vitro tubulin polymerization inhibition assay was conducted according to the manufacturer ’s instruction (cytoskeleton, cat. no. BK011P). Briefly, 5 μL of the tested compounds at the indicated

The IC50 is the concentration that gives 50% inhibition. On to `COc1ccc(C(=O)c2ccc3c(ccn3C)c2)c2c1C=CC(C)(C)O2` [compound 14b, (5-methoxy-2,2-dimethyl-2H-chromen-8-yl)(1-methyl-1H-indol-5-yl)methanone], for which the IC50 amounted to 37 ± 3 nM in experiment [1]; 74 ± 13 nM in experiment [2]; 51 ± 5 nM in experiment [3]; 27 ± 6 nM in experiment [4]; 3698 ± 36 nM in experiment [5] (Homo sapiens, RWPE-1, 48 h, CCK-8, normal cells, read-out: IC50, Mean ± SE, RWPE-1); 89 ± 15 nM in experiment [6]. In addition, the “Selectivity Ratio” value in experiment [5] (IC50 RWPE-1 / IC50 C42B) was 72.51. For the same compound, in experiment [7], the “intracellular tubulin-microtubule homeostasis” value is “heavily disturbed”.

The values above are taken from paper PMC9921564, “Novel Indole-Containing Hybrids Derived from Millepachine: Synthesis, Biological Evaluation and Antitumor Mechanism Study” (Molecules, 2023).
